Entries after “also recorded” stand apart in the source; their conditions may differ.
Experiments:
PI3Kα (p110α/p85α) = target: T1, PI3Kα (p110α/p85α) (Homo sapiens, UniProt P42336); experiment: HTRF assay, potency against active PI3Kα; format: biochemical; details: HTRF; [ATP]=50 μM, [di-C8-PIP2]=10 μM; 30 min pre-incubation; read-out: PI3Kα Inhibition
T1 construct: purchased BPS Bioscience (San Diego, Calif.) or Millipore (Billerica, Mass.)
Outline: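 IC50 came from a variable-slope fit of % inhibition, calculated from the HTRF emission ratio relative to wells with and without enzyme. Reactions with the active enzyme complex ran 30-60 minutes at 25 °C after ATP addition before stop and detection reagents.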

PI3Kβ (p110β/p85α) = target: T2, PI3Kβ (p110β/p85α) (Homo sapiens, UniProt P42338); experiment: HTRF assay, potency against active PI3Kβ; format: biochemical; details: [ATP]=50 μM, [di-C8-PIP2]=10 μM, 30 min pre-incubation, read-out: PI3Kβ Inhibition
T2 construct: purchased BPS Bioscience (San Diego, Calif.) or Millipore (Billerica, Mass.)
T2 sequence (P42338 whole entry): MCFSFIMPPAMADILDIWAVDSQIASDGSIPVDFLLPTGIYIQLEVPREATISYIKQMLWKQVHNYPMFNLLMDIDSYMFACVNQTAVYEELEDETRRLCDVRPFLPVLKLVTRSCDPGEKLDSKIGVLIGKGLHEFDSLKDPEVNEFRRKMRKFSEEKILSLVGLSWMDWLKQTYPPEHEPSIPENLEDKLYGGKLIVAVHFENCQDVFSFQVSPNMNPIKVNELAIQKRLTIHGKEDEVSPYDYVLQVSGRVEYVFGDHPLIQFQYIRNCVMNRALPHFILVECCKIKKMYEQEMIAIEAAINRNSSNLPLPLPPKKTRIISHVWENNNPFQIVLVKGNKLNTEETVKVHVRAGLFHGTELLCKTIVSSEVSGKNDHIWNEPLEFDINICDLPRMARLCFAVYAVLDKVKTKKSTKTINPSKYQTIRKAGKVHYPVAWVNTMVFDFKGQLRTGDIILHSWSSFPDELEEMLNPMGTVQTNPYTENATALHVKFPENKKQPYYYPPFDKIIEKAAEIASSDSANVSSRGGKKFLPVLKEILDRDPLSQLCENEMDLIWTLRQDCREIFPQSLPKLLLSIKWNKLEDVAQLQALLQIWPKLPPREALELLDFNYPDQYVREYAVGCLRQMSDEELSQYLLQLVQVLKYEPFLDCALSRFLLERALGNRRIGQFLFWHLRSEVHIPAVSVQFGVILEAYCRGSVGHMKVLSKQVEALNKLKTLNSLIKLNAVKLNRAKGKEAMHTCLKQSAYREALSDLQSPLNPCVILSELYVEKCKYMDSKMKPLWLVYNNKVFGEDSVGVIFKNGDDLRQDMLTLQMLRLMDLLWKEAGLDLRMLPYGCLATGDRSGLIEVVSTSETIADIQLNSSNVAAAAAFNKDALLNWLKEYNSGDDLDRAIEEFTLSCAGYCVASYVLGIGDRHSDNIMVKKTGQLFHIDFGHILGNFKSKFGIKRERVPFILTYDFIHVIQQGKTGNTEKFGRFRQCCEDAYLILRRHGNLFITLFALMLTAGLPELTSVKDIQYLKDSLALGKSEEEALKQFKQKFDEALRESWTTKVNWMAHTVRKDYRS
T2 sequence (P27986 whole entry partner): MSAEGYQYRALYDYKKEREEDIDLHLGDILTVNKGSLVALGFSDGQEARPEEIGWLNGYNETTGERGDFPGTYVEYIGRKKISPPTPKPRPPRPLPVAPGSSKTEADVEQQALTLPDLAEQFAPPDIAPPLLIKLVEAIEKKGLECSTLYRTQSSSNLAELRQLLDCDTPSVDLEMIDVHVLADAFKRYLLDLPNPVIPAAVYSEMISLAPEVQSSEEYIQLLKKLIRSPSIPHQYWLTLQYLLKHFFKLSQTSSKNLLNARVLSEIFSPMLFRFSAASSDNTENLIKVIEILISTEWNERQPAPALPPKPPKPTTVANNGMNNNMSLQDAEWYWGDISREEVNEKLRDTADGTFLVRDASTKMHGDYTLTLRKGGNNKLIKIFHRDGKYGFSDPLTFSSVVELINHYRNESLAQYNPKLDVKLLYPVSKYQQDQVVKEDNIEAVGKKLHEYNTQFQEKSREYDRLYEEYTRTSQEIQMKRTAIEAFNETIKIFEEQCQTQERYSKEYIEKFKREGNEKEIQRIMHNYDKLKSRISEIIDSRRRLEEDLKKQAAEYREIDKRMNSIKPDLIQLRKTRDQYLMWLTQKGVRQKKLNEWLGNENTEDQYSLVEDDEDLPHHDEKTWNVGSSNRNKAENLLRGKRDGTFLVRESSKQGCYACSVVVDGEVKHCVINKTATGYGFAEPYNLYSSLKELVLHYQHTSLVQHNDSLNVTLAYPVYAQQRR
Method: Homogeneous Time Resolved Fluorescence (HTRF) Assay Protocol for Potency Assessment Against the Active Forms of PI3Kα, PI3Kβ, and PI3Kγ
The mechanics of the assay platform are best described by the vendor (Millipore, Billerica, Mass.) on their website at the following URL: www.millipore.com/coa/tech1/74jt4z.
Briefly, Stop solution (Stop A, #33-007 and Stop B, #33-009; 3:1 ratio) and Detection Mix (from DMC, #33-015 with DMA, #33-011 and DMB, #33-013; 18:1:1 ratio) were prepared as recommended by the manufacturer about 2 hrs prior to use. […] Lipid kinase reactions were started with the addition of 5 μL of ATP solution, mixed for 15 sec on a rotary plate shaker and incubated for 30-60 minutes at 25° C. Next, reactions were stopped with a 5 μL addition of Stop solution immediately followed by a 5 μL volume of Detection Mix. […] At the conclusion of each assay, the HTRF ratio from fluorescence emission values for each well was calculated and % Inhibition determined from averaged controls wells (+/−PI3K enzyme). % Inhibition values for each compound were then plotted against inhibitor concentration to estimate IC50 from log [Inhibitor] vs Response, Variable Slope model in GraphPad Prism from GraphPad Software (San Diego, Calif.).

Phospho-Akt(Ser473) [1] = experiment: Dose response in SKOV3 cells as determined by Western blot; format: cell-based; details: Homo sapiens, SK-OV-3, 1 hr, Phospho-Akt normalized to total Akt, read-out: Immunoblot
Method: Dose Response in SKOV3 Cells as Determined by Western Blot
SKOV3 cells were plated in SKOV3 Growth Media (DMEM supplemented with 10% FBS and pen/strep) at a density of 4×10^5 cells per well of 12 well plates. Twenty four hours later the media was removed and replaced with 1 ml media containing test compound and 0.1% DMSO and cells were returned to the incubator for 1 hr. At the end of the hour, the media was removed and the cells were washed with PBS, then lysed and scraped into 30 ul of Cell Extraction Buffer (Biosource, Camarillo, Calif.) plus Complete Protease Inhibitor and PhosStop Phosphatase Inhibitor (Roche, Indianapolis, Ind.).
Cell debris was spun down at 13,000×g for 1 minute and the supernatant was taken as the cell lysate. Protein concentration of the lysate was determined by BCA Assay (Pierce Biotechnology, Rockford, Ill.) and 50 ug of protein was loaded per well onto a NuPAGE Novex 4-12% Bis-Tris gel (Invitrogen, Carlsbad, Calif.) then transferred to Immobilon PVDF-FL (Millipore, Billerica, Mass.).
The blot was blocked in Odyssey Blocking Buffer (Li-Cor Biosciences, Lincoln, Nebr.) for 1 hr then incubated overnight at 4° C. with mouse anti-Akt (#2920) and rabbit anti-Phospho-Akt(Ser473) (#9271)(Cell Signaling Technology, Boston, Mass.) antibodies, both diluted 1:1000 in PBS/Odyssey Buffer (1:1)+0.1% Tween-20. The blots were washed 3 times 5 minutes in PBS+0.2% Tween-20 then incubated for 1 hr at room temperature with fluorescently labeled secondary antibodies (Li-Cor) diluted 1:10000 in PBS/Odyssey Buffer (1:1)+0.1% Tween-20.
The blots were washed 2 times for 5 minutes in PBS+0.2% Tween-20, once in distilled water, then scanned on an Odyssey machine (Li-Cor). Band intensity was determined using the Odyssey software and Phopho-Akt signal was normalized to total Akt within samples, then expressed as a percentage of the untreated Phospho-Akt signal.

Phospho-Akt(Ser473) [2] = experiment: Dose response in SKOV3 cells as determined by in-cell Western; format: cell-based; details: Homo sapiens, SK-OV-3; SKOV3 cells, 1 hr; read-out: pAKT Inhibition in cell Western
Outline: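 SKOV3 cells treated with compound for 1 hr, then formaldehyde-fixed, permeabilised and stained overnight for phospho-Akt(Ser473) with anti-tubulin as a reference. Infrared secondary antibodies read at 680 and 800 nm channels by in-cell Western imaging.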

PI3Kγ (p120γ) = target: T3, PI3Kγ (p120γ) (Homo sapiens, UniProt P48736); experiment: HTRF assay, potency against active PI3Kγ; format: biochemical; details: [ATP]=50 μM, [di-C8-PIP2]=10 μM, 30 min pre-incubation, read-out: PI3Kγ Inhibition
T3 construct: purchased BPS Bioscience (San Diego, Calif.) or Millipore (Billerica, Mass.)
T3 sequence (P48736 whole entry): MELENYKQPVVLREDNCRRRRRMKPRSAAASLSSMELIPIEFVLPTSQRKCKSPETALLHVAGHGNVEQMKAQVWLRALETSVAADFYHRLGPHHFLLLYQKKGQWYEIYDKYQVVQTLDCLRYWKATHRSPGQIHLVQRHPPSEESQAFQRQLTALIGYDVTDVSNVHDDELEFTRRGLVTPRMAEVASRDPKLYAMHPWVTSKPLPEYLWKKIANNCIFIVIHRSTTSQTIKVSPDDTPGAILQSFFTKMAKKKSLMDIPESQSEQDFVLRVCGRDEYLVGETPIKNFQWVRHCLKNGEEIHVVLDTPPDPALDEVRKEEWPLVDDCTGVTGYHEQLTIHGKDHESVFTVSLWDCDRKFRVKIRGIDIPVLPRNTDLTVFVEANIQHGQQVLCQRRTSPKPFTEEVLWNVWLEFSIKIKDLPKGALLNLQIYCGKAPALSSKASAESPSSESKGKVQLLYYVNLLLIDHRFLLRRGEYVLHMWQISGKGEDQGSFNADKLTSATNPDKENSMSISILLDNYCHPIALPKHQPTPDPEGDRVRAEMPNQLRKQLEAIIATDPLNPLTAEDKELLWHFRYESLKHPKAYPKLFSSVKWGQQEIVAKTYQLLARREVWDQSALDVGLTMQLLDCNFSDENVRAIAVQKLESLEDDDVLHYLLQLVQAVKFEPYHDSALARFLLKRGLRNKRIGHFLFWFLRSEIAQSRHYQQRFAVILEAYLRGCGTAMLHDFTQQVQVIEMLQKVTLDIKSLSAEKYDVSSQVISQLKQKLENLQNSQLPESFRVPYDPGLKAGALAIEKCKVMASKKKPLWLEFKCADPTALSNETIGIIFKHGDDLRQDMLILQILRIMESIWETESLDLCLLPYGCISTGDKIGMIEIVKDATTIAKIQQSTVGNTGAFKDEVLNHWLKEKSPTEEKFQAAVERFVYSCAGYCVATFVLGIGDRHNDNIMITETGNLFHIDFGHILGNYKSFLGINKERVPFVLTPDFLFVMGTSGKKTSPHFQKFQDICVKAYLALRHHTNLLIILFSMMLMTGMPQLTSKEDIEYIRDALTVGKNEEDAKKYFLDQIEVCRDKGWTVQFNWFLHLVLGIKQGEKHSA
Outline: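 End-point competition HTRF: enzyme (p110β/p85α 0.75 nM; p120γ 2-2.5 nM) with 10 μM di-C8-PIP2 pre-incubated 30 min at 25° C with compound, then 50 μM ATP added for 30-60 min at 25° C. Stopped, detected after 1 and 18 h; IC50 from variable-slope fit.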

PI3K = PI3K HCT116 cellular assay (Western blot); format: cell-based; details: Homo sapiens, HCT-116, HCT116 colon cancer cells, 1 hour incubation, read-out: PI3K Inhibition
Method: PI3K HCT116 Cellular Assay
Selected compounds were assayed in HCT116 colon cancer cells. […] Cells were then washed with PBS, lysed and the protein lysates were then recovered and analyzed by Western blot.

HCT116 cells = experiment: HCT-116 cell proliferation assay; format: cell-based; details: Homo sapiens, 72 hours, Cell Titer Glo
Method: HCT-116 Cell Proliferation Assay
For the HCT116 Proliferation Assay, 3000 cells per well were plated in Growth Media (DMEM, 10% FBS, 1% 1-glutamine, 1% penicillin/streptomycin) in 96 well plates. The following day, compounds were added to duplicate wells at concentrations of 10 uM and 3-fold dilutions down to 40 nM. The plates were returned to the incubator for 72 hours and then the assays were developed using Cell Titer Glo (Promega, Madison, Wis.) according to manufacturer's instructions.

SK-OV-3 cells = experiment: SK-OV-3 cell proliferation assay; format: cell-based; details: Homo sapiens; SK-OV-3 proliferation, 72 hours, Cell Titer Glo
Method: SK-OV-3 Cell Proliferation Assay
For the SK-OV-3 proliferation Assay, 5000 cells per well were plated in Growth Media (DMEM, 10% FBS, 1% 1-glutamine, 1% penicillin/streptomycin) in 96 well plates. The following day, compounds were added to duplicate wells at concentrations of 10 uM and 3-fold dilutions down to 40 nM. The plates were returned to the incubator for 72 hours and then the assays were developed using Cell Titer Glo (Promega, Madison, Wis.) according to manufacturer's instructions.

PI3Kα = PI3Kα (Homo sapiens, UniProt P42336); experiment: Mass spectrometry of intact PI3Kα (Johns Hopkins), 3 hr incubation; format: binding; parameters: Johns Hopkins; details: 10× fold excess of compound, MALDI
Chain of PI3Kα (P42336 whole entry): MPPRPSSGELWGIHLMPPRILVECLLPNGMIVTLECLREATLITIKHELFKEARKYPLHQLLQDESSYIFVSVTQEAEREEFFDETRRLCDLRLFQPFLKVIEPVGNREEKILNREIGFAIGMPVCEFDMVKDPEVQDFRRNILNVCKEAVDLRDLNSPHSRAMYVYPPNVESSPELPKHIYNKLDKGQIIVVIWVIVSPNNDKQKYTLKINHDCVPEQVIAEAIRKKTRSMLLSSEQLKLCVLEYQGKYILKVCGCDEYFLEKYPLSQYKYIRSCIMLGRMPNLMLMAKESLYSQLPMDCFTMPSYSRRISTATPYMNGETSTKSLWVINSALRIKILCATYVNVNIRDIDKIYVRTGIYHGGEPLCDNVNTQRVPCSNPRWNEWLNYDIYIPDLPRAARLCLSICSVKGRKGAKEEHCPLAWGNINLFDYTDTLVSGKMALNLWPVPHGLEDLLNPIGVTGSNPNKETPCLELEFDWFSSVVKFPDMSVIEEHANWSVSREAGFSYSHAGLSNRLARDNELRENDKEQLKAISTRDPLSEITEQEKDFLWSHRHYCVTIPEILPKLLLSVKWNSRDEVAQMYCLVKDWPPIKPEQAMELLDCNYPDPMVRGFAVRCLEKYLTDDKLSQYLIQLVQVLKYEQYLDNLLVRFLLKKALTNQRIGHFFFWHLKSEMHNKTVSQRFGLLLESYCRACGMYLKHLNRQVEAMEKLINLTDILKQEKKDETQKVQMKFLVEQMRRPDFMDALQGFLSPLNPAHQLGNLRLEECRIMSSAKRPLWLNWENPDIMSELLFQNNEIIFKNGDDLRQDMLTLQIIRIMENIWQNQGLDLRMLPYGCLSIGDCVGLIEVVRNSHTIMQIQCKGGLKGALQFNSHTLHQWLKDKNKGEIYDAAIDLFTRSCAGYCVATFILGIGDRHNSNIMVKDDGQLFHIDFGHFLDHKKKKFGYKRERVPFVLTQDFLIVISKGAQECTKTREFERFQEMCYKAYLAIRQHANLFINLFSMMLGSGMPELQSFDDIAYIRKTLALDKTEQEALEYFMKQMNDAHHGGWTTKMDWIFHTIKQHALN
Chain of PI3Kα (P27986 322-600 partner limits assumed): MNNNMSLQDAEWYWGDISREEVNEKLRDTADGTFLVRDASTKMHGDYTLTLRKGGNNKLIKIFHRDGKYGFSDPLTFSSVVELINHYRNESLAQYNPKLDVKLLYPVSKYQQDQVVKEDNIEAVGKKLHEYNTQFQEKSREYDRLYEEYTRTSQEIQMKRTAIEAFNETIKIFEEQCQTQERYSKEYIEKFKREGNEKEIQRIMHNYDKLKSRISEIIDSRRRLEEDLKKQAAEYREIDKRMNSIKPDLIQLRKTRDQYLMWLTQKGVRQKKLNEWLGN
Method: Mass Spectrometry for PI3K
Intact PI3Kα (Johns Hopkins) was incubated for 3 hr at a 10× fold excess of II-a-45 or II-a-49 to protein. Aliquots (3 μL) of the samples were diluted with 10 μL of 0.1% TFA prior to micro C4 ZipTipping directly onto the MALDI target using Sinapinic acid as the desorption matrix (10 mg/ml in 0.1% TFA:Acetonitrile 50:50).

SKOV3 cells = experiment: GI50 determinations in SKOV3 cells; format: cell-based; details: Homo sapiens, SK-OV-3; SKOV3 cells, 96 hours, Cell Titer Glo
Method: GI50 Determinations in SKOV3 Cells
A standard curve ranging from 10,000 to 50,000 cells was set up in a separate plate and allowed to adhere to the plate for 4-6 hours, at which time the plate was developed using Cell Titer-Glow (Promega, Madison, Wis.) according to manufacturer's instructions.
The next morning, 3-fold compound dilutions ranging from 10,000 nM to 40 nM were prepared in Proliferation Media containing 1% DMSO. 20 ul of each dilution was added to the SKOV3 cells plated the previous day resulting in a dose response curve from 1000 nM to 4 nM. The cells were incubated for 96 hours and then developed with Cell Titer Glo.
The cell numbers at the end of the assay were determined using the standard curve generated at the start of the assay. Growth inhibition was calculated using the following formulas and GI50s were determined by plotting the % growth inhibition vs. Log compound concentration in GraphPad.
%growth=100×(T−T0)/(C−T0)
T=Cell Number at end of assay T0=Cell Number at start of assay (5000) C=Number of cells in DMSO controls at end of assay
%growth inhibition=100−%growth

T1 sequence (P42336 whole entry): as the sequence (P42336 whole entry) above
T1 sequence (P27986 whole entry partner): as the sequence (P27986 whole entry partner) above

C/C=C/C(=O)CCC(=O)N1CCN(Cc2cc3nc(-c4cnc(N)nc4)nc(N4CCOCC4)c3s2)CC1 [II-a-112, (E)-1-(4-((2-(2-aminopyrimidin-5-yl)-4-morpholinothieno[3,2-d]pyrimidin-6-yl)methyl)piperazin-1-yl)hept-5-ene-1,4-dione]
IC50 (PI3Kα (p110α/p85α)): 10 to 100 nM | IC50 (PI3Kβ (p110β/p85α)): 100 to 1000 nM | EC50 (Phospho-Akt(Ser473) [1]): 10 to 100 nM | EC50 (Phospho-Akt(Ser473) [2]): ≤ 10 nM

CC/C=C/C(=O)CCC(=O)N1CCN(Cc2cc3nc(-c4cccc5[nH]ncc45)nc(N4CCOCC4)c3s2)CC1 [II-a-53, (E)-1-(4-((2-(1H-indazol-4-yl)-4-morpholinothieno[3,2-d]pyrimidin-6-yl)methyl)piperazin-1-yl)oct-5-ene-1,4-dione]
IC50 (PI3Kα (p110α/p85α)): < 10 nM | IC50 (PI3Kγ (p120γ)): > 1000 nM | EC50 (PI3K): 20 to 100 nM | EC50 (HCT116 cells): 100 to 1000 nM | EC50 (SK-OV-3 cells): 100 to 1000 nM | covalent modification of PI3Kα (PI3Kα): completely modify

C/C=C/C(=O)CCC(=O)N1CCN(Cc2cc3nc(-c4cccc(O)c4)nc(N4CCOCC4)c3s2)CC1 [II-a-50, (E)-1-(4-((2-(3-hydroxyphenyl)-4-morpholinothieno[3,2-d]pyrimidin-6-yl)methyl)piperazin-1-yl)hept-5-ene-1,4-dione]
IC50 (PI3Kα (p110α/p85α)): < 10 nM | IC50 (PI3Kγ (p120γ)): > 1000 nM | EC50 (PI3K): < 20 nM | EC50 (HCT116 cells): 100 to 1000 nM | EC50 (SK-OV-3 cells): 100 to 1000 nM | covalent modification of PI3Kα (PI3Kα): completely modify

O=C(/C=C/c1ccccc1)CCC(=O)N1CCN(Cc2cc3nc(-c4cccc5[nH]ncc45)nc(N4CCOCC4)c3s2)CC1 [II-a-116, (E)-1-(4-((2-(1H-indazol-4-yl)-4-morpholinothieno[3,2-d]pyrimidin-6-yl)methyl)piperazin-1-yl)-6-phenylhex-5-ene-1,4-dione]
IC50 (PI3Kα (p110α/p85α)): 10 to 100 nM | IC50 (PI3Kβ (p110β/p85α)): > 1000 nM | EC50 (Phospho-Akt(Ser473) [1]): 10 to 100 nM | EC50 (Phospho-Akt(Ser473) [2]): 10 to 100 nM

C=C(C)C(=O)CCC(=O)N1CCN(Cc2cc3nc(-c4cccc5[nH]ncc45)nc(N4CCOCC4)c3s2)CC1 [II-a-43, 1-(4-((2-(1H-indazol-4-yl)-4-morpholinothieno[3,2-d]pyrimidin-6-yl)methyl)piperazin-1-yl)-5-methylhex-5-ene-1,4-dione]
IC50 (PI3Kα (p110α/p85α)): 10 to 100 nM | IC50 (PI3Kγ (p120γ)): > 1000 nM | IC50 (PI3Kβ (p110β/p85α)): > 1000 nM | EC50 (PI3K): < 20 nM | EC50 (HCT116 cells): 100 to 1000 nM | EC50 (SK-OV-3 cells): 100 to 1000 nM | covalent modification of PI3Kα (PI3Kα): completely modify

CC(C)=CC(=O)CCC(=O)N1CCN(C(=O)c2cc3nc(-c4cccc5[nH]ncc45)nc(N4CCOCC4)c3s2)CC1 [II-a-160, 1-(4-(2-(1H-indazol-4-yl)-4-morpholinothieno[3,2-d]pyrimidine-6-carbonyl)piperazin-1-yl)-6-methylhept-5-ene-1,4-dione]
IC50 (PI3Kα (p110α/p85α)): 100 to 1000 nM | IC50 (PI3Kβ (p110β/p85α)): > 1000 nM | GI50 (SKOV3 cells): 10 to 100 nM

O=C(/C=C/C1CC1)CCC(=O)N1CCN(Cc2cc3nc(-c4cccc5[nH]ncc45)nc(N4CCOCC4)c3s2)CC1 [II-a-55, (E)-1-(4-((2-(1H-indazol-4-yl)-4-morpholinothieno[3,2-d]pyrimidin-6-yl)methyl)piperazin-1-yl)-6-cyclopropylhex-5-ene-1,4-dione]
IC50 (PI3Kα (p110α/p85α)): 10 to 100 nM | IC50 (PI3Kγ (p120γ)): > 1000 nM | IC50 (PI3Kβ (p110β/p85α)): > 1000 nM | EC50 (PI3K): 20 to 100 nM | EC50 (HCT116 cells): 100 to 1000 nM | EC50 (SK-OV-3 cells): 1000 to 10000 nM | covalent modification of PI3Kα (PI3Kα): completely modify

C=C(C)C(=O)CCC(=O)N1CCN(Cc2cc3nc(-c4cccc(O)c4)nc(N4CCOCC4)c3s2)CC1 [II-a-49, 1-(4-((2-(3-hydroxyphenyl)-4-morpholinothieno[3,2-d]pyrimidin-6-yl)methyl)piperazin-1-yl)-5-methylhex-5-ene-1,4-dione]
IC50 (PI3Kα (p110α/p85α)): 10 to 100 nM | IC50 (PI3Kγ (p120γ)): > 1000 nM | EC50 (PI3K): < 20 nM | EC50 (HCT116 cells): 100 to 1000 nM | EC50 (SK-OV-3 cells): 100 to 1000 nM | covalent modification of PI3Kα (PI3Kα): complete modification; also recorded: covalent modification | positive mass shift of PI3Kα (PI3Kα): 616 Da

Reference: patent US20110230476A1, “PI3 KINASE INHIBITORS AND USES THEREOF” (AVILA THERAPEUTICS, INC., priority 2009, published 2011)
